Tested on: E. faecalis MMH594 whole cells (TyrDC)
Experiment: Inhibition of L-dopa decarboxylation in E. faecalis whole cells
Type: cell-based, Enterococcus faecalis MMH594
Details: for EC50: E. faecalis whole cells / cultures
Description: Thus, a library of commercially available tyrosine and phenylalanine derivatives were evaluated for decarboxylation by Enterococcus faecalis MMH594 whole cells; decarboxylation efficiency of a given tyrosine analog was used to identify favorable aromatic fragments, with high conversion indicating a favorable arene scaffold. […] To quickly assess whether the trend in native decarboxylation activity can be translated to inhibitory activity, we evaluated benzyl aminooxy compounds with similar aromatic elements as inhibitors for L-dopa decarboxylation in E. faecalis MMH594 whole cells (10 μM inhibitor); high L-dopa recovery indicated high inhibitory efficiency. […] In addition, these compounds are either commercially available or can be accessed in a two-step synthetic sequence (European Journal of Medicinal Chemistry 2016, 108, 564-576). As shown, inhibitors without a para-hydroxyphenyl motif are not effective towards L-dopa decarboxylation in whole cells (FIG. 3B). Aminooxy compounds with this structural motif can inhibit L-dopa decarboxylation in E. faecalis cultures at low concentrations.
AFMT analogs were evaluated for their inhibitory effects towards L-dopa decarboxylation using the same protocol as described above. 500 μM L-dopa was incubated anaerobically at 37° C. with E. faecalis MMH594 in the presence of 100 μM inhibitor for 18-24 h. The level of remaining L-dopa was measured by MS/MS and then normalized to the level of L-dopa from a mutant control. […] Since (S)-AFMT is the active AFMT enantiomer, the stereochemical assignments in FIG. 5 assume that the enantiomer with the higher inhibitory activity carries the […] configuration. Chiral configuration will be unambiguously determined via crystallography in the future.

| SMILES | EC50 | further results |
| --- | --- | --- |
| NOCc1ccc(O)c(F)c1 [3-fluoro-4-hydroxybenzyl aminooxy] | 2.2 µM |  |
| NOCc1ccc(O)cc1 [4-hydroxybenzyl aminooxy] | 1.5 µM |  |
| N[C@@](CF)(Cc1ccc(O)cc1)C(=O)O [AFMT, α-fluoromethyltyrosine] |  | EC50 (Enterococcus faecalis): 1.4 µM |
| C[C@@](Cc1ccc(O)c(O)c1)(NN)C(=O)O [carbidopa] |  | limiting L-dopa decarboxylation by E. faecalis (applicant's original study): ineffective |

Reference: patent publication US20230174460A1, “AFMT ANALOGS AND THEIR USE IN METHODS OF TREATING PARKINSON'S DISEASE” (President and Fellowes of Harvard College, priority 2020, published 2023)
